Data: ChEMBL document CHEMBL6115036, “Exploration of membrane-active cephalosporin derivatives as potent antibacterial agents against Staphylococcus aureus biofilms and persisters” (Eur J Med Chem, 2025)
Calls of active or inactive are those of the source. The rule behind the calls is not given here.

Columns and labels:
Staphylococcus aureus [1] = test: Antibacterial activity against Staphylococcus aureus infected in Kunming mouse model of subcutaneous abscess assessed as surviving bacteria in skin tissue at 10 mg/kg, sc measured after 48 hrs relative to control; format: functional
Staphylococcus aureus [2] = test: Antibacterial activity against Staphylococcus aureus infected in Kunming mouse model of subcutaneous abscess assessed as reduction in bacterial load in skin tissue at 10 mg/kg, sc measured after 48 hrs relative to control; format: functional; design: scale not given: the % may be the effect or the level left
Staphylococcus aureus [3] = test: Antibacterial activity against Staphylococcus aureus infected in Kunming mouse model of subcutaneous abscess assessed as reduction in number of bacteria in skin tissue at 5 to 10 mg/kg, sc measured after 48 hrs; format: functional, organism-based; conditions: dose 5-10 mg/kg
Staphylococcus aureus [4] = test: Inhibition of biofilm formation in Staphylococcus aureus assessed as reduction in number of live bacterial count at 16 times MIC incubated for 24 hrs; format: functional
Staphylococcus aureus [5] = test: Inhibition of biofilm formation in Staphylococcus aureus at 16 times MIC incubated for 24 hrs; format: functional, organism-based
Enterococcus faecalis = test: Antimicrobial activity against Enterococcus faecalis incubated for 16 to 18 hrs by broth dilution assay; format: functional; conditions: time 16-18 hrs
Staphylococcus aureus [6] = test: Antimicrobial activity against Staphylococcus aureus incubated for 16 to 18 hrs by broth dilution assay; format: functional; conditions: time 16-18 hrs
[7] = tested on: Stenotrophomonas maltophilia; test: Antimicrobial activity against Stenotrophomonas maltophilia incubated for 16 to 18 hrs by broth dilution assay; format: functional; conditions: time 16-18 hrs
Escherichia coli = test: Antimicrobial activity against Escherichia coli incubated for 16 to 18 hrs by broth dilution assay; format: functional; conditions: time 16-18 hrs
[8] = Hemolytic activity in sheep red blood cells incubated for 1 hr; format: toxicity, cell-based, Ovis aries, Erythrocyte
Staphylococcus aureus [9] = test: Induction of cytoplasmic membrane depolarization in Staphylococcus aureus assessed as increase in fluorescence intensity at 32 ug/ml measured for 20 mins by DiSC3(5) dye based analysis; format: functional, organism-based; conditions: dose 32.0 µg/ml
Staphylococcus aureus [10] = test: Induction of inner membrane permeability in Staphylococcus aureus assessed as increase in fluorescence intensity at 32 ug/ml measured for 20 mins by PI dye based analysis; format: functional, organism-based; conditions: dose 32.0 µg/ml
Staphylococcus aureus [11] = test: Disruption of cell membrane in Staphylococcus aureus assessed as nucleic acid leakage measured after 2 hrs by fluorescence based analysis; format: functional, organism-based; conditions: dose 8-32 µg/ml
Staphylococcus aureus [12] = test: Disruption of cell membrane in Staphylococcus aureus assessed as protein leakage measured after 2 hrs by fluorescence based analysis; format: functional, organism-based; conditions: dose 8-32 µg/ml
Staphylococcus aureus [13] = test: Bactericidal activity against Staphylococcus aureus assessed as reduction in bacterial colony count at 4 to 8 times MIC incubated for 8 hrs by time kill assay; format: functional, organism-based
Staphylococcus aureus [14] = test: Antibacterial activity against Staphylococcus aureus in presence of 50% sheep plasma; format: functional, organism-based
Staphylococcus aureus [15] = test: Antibacterial activity against Staphylococcus aureus in presence of 50% FBS; format: functional, organism-based
Staphylococcus aureus [16] = test: Bactericidal activity against Staphylococcus aureus measured for 3 to 6 hrs in presence of 50% sheep plasma; format: functional, organism-based; conditions: time 3-6 hrs
Staphylococcus aureus [17] = test: Induction of resistance development in Staphylococcus aureus at sub-MIC measured after 20 passages; format: functional, organism-based
Staphylococcus aureus [18] = test: Induction of resistance development in drug-resistant Staphylococcus aureus at sub-MIC measured after 20 passages in presence of norfloxacin; format: functional, organism-based
Staphylococcus aureus [19] = test: Induction of resistance development in drug-resistant Staphylococcus aureus at sub-MIC measured after 20 passages in presence of ciprofloxacin; format: functional, organism-based
Staphylococcus aureus [20] = test: Induction of resistance development in drug-resistant Staphylococcus aureus at sub-MIC measured after 20 passages in presence of levofloxacin; format: functional, organism-based
Staphylococcus aureus [21] = test: Induction of resistance development in drug-resistant Staphylococcus aureus at sub-MIC measured after 20 passages in presence of linezolid; format: functional, organism-based
Staphylococcus aureus [22] = test: Induction of resistance development in drug-resistant Staphylococcus aureus at sub-MIC measured after 20 passages in presence of rifampicin; format: functional, organism-based
Staphylococcus aureus [23] = test: Induction of resistance development in drug-resistant Staphylococcus aureus at sub-MIC measured after 20 passages in presence of vancomycin; format: functional, organism-based
Staphylococcus aureus [24] = test: Induction of resistance development in drug-resistant Staphylococcus aureus at sub-MIC measured after 20 passages in presence of cefuroxime sodium; format: functional, organism-based
Staphylococcus aureus [25] = test: Induction of resistance development in drug-resistant Staphylococcus aureus at sub-MIC measured after 20 passages in presence of ampicillin sodium; format: functional, organism-based
Staphylococcus aureus [26] = test: Inhibition of metabolic activity in Staphylococcus aureus incubated for 6 hrs by Alamar blue assay; format: functional, organism-based
Staphylococcus aureus [27] = test: Induction of intracellular ROS accumulation in Staphylococcus aureus incubated overnight by DCFH-DA dye based analysis; format: functional, organism-based
Staphylococcus aureus [28] = test: Antibacterial activity against Staphylococcus aureus assessed as inhibition of bacterial growth at stationary phase at 32 times MIC incubated for 4 hrs; format: functional, organism-based
Staphylococcus aureus [29] = test: Antibacterial activity against rifampicin-induced persistant Staphylococcus aureus assessed as decrease in CFU at 16 times MIC measured for 10 hrs; format: functional
Staphylococcus aureus [30] = test: Bactericidal activity against rifampicin-induced persistant Staphylococcus aureus at 32 times MIC measured for 10 hrs; format: functional, organism-based
Staphylococcus aureus [31] = test: Inhibition of biofilm formation in Staphylococcus aureus assessed as decrease in bacterial count at 32 times MIC incubated for 24 hrs by CLSM analysis; format: functional, organism-based
Staphylococcus aureus [32] = test: Inhibition of biofilm formation in Staphylococcus aureus assessed as punctate distribution at 32 times MIC incubated for 24 hrs by CLSM analysis; format: functional, organism-based
[33] = Cytotoxicity against human HeLa cells incubated for 24 hrs by CCK8 assay; format: toxicity, cell-based
[34] = Cytotoxicity against HUVEC cells incubated for 24 hrs by CCK8 assay; format: toxicity, cell-based; conditions: human
Staphylococcus aureus [35] = test: Antibacterial activity against Staphylococcus aureus infected in Kunming mouse model of subcutaneous abscess assessed as decrease in neutrophil level in skin tissue at 5 mg/kg, sc measured after 48 hrs by H and E staining based analysis; format: functional, organism-based
Staphylococcus aureus [36] = test: Antibacterial activity against Staphylococcus aureus infected in Kunming mouse model of subcutaneous abscess assessed as decrease in inflammation in skin tissue at 5 mg/kg, sc measured after 48 hrs by H and E staining based analysis; format: functional, organism-based
[37] = Toxicity in Kunming mouse model of subcutaneous abscess infected with Staphylococcus aureus assessed as damage in heart at 5 to 10 mg/kg, sc measured after 48 hrs by H and E staining based analysis; format: organism-based; conditions: in vivo, dose 5-10 mg/kg
[38] = Toxicity in Kunming mouse model of subcutaneous abscess infected with Staphylococcus aureus assessed as damage in liver at 5 to 10 mg/kg, sc measured after 48 hrs by H and E staining based analysis; format: organism-based; conditions: in vivo, dose 5-10 mg/kg
[39] = Toxicity in Kunming mouse model of subcutaneous abscess infected with Staphylococcus aureus assessed as damage in spleen at 5 to 10 mg/kg, sc measured after 48 hrs by H and E staining based analysis; format: organism-based; conditions: in vivo, dose 5-10 mg/kg
[40] = Toxicity in Kunming mouse model of subcutaneous abscess infected with Staphylococcus aureus assessed as damage in lung at 5 to 10 mg/kg, sc measured after 48 hrs by H and E staining based analysis; format: organism-based; conditions: in vivo, dose 5-10 mg/kg
[41] = Toxicity in Kunming mouse model of subcutaneous abscess infected with Staphylococcus aureus assessed as damage in kidney at 5 to 10 mg/kg, sc measured after 48 hrs by H and E staining based analysis; format: organism-based; conditions: in vivo, dose 5-10 mg/kg
[42] = Toxicity in Kunming mouse model of subcutaneous abscess infected with Staphylococcus aureus assessed as histopathological abnormalities in heart at 5 to 10 mg/kg, sc measured after 48 hrs by H and E staining based analysis; format: organism-based; conditions: in vivo, dose 5-10 mg/kg
[43] = Toxicity in Kunming mouse model of subcutaneous abscess infected with Staphylococcus aureus assessed as histopathological abnormalities in liver at 5 to 10 mg/kg, sc measured after 48 hrs by H and E staining based analysis; format: organism-based; conditions: in vivo, dose 5-10 mg/kg
[44] = Toxicity in Kunming mouse model of subcutaneous abscess infected with Staphylococcus aureus assessed as histopathological abnormalities in spleen at 5 to 10 mg/kg, sc measured after 48 hrs by H and E staining based analysis; format: organism-based; conditions: in vivo, dose 5-10 mg/kg
[45] = Toxicity in Kunming mouse model of subcutaneous abscess infected with Staphylococcus aureus assessed as histopathological abnormalities in lung at 5 to 10 mg/kg, sc measured after 48 hrs by H and E staining based analysis; format: organism-based; conditions: in vivo, dose 5-10 mg/kg
[46] = Toxicity in Kunming mouse model of subcutaneous abscess infected with Staphylococcus aureus assessed as histopathological abnormalities in kidney at 5 to 10 mg/kg, sc measured after 48 hrs by H and E staining based analysis; format: organism-based; conditions: in vivo, dose 5-10 mg/kg

SMILES: CCCCCCCCCCCCCCCC[n+]1ccc(-c2cc[n+](CC3=C(C(=O)[O-])N4C(=O)[C@@H](NC(=O)Cc5ccccc5)[C@H]4SC3)cc2)cc1.O=C([O-])C(F)(F)F
- Activity (Staphylococcus aureus [1]): 0.13%
- Activity (Staphylococcus aureus [2]): 99.87%
- Activity (Staphylococcus aureus [3]): Active
- Activity (Staphylococcus aureus [4]): ~1 10^8CFU/ml
- inhibition (Staphylococcus aureus [5]): Active; Compound Activity Better Than Vancomycin, Rifampicin And Cephalothin
- MIC (Enterococcus faecalis): 32 µg/mL
- MIC (Staphylococcus aureus [6]): 4 µg/mL
- MIC [7]: 128 µg/mL
- MIC (Escherichia coli): 128 µg/mL
- HC50 at 1 h [8]: 112 µg/mL
- Activity (Staphylococcus aureus [9]): Active
- Activity (Staphylococcus aureus [10]): Active
- Activity (Staphylococcus aureus [11]): Dose-dependent-effect
- Activity (Staphylococcus aureus [12]): Dose-dependent-effect
- Activity (Staphylococcus aureus [13]): Active
- Activity (Staphylococcus aureus [14]): Active; Mic Value Of Compound In Plasma Was Equal To Mic In Mhb Medium
- Activity (Staphylococcus aureus [15]): Active; Mic Value Of Compound In Serum Was Equal To Mic In Mhb Medium
- Activity (Staphylococcus aureus [16]): Active
- Activity (Staphylococcus aureus [17]): inactive
- Activity (Staphylococcus aureus [18]): inactive
- Activity (Staphylococcus aureus [19]): inactive
- Activity (Staphylococcus aureus [20]): inactive
- Activity (Staphylococcus aureus [21]): inactive
- Activity (Staphylococcus aureus [22]): inactive
- Activity (Staphylococcus aureus [23]): inactive
- Activity (Staphylococcus aureus [24]): inactive
- Activity (Staphylococcus aureus [25]): inactive
- inhibition (Staphylococcus aureus [26]): Dose-dependent-effect
- Activity (Staphylococcus aureus [27]): Dose-dependent-effect
- inhibition (Staphylococcus aureus [28]): Active
- Activity (Staphylococcus aureus [29]): ~1 10^5CFU/ml
- Activity (Staphylococcus aureus [30]): Active
- inhibition (Staphylococcus aureus [31]): Active
- inhibition (Staphylococcus aureus [32]): Active
- CC50 at 24 h [33]: 34.7 µg/mL
- CC50 at 24 h [34]: 15.7 µg/mL
- Activity (Staphylococcus aureus [35]): Active
- Activity (Staphylococcus aureus [36]): Active
- Activity [37]: Non-toxic
- Activity [38]: Non-toxic
- Activity [39]: Non-toxic
- Activity [40]: Non-toxic
- Activity [41]: Non-toxic
- Activity [42]: Non-toxic
- Activity [43]: Non-toxic
- Activity [44]: Non-toxic
- Activity [45]: Non-toxic
- Activity [46]: Non-toxic
